Measurements published in PMC11061419, “Identification of novel small molecule inhibitors of twin arginine translocation (Tat) pathway and their effect on the control of Campylobacter jejuni in chickens” (Frontiers in Microbiology, 2024).
Values after ≈ are worked out from the molar mass of the structure shown.

Experiments:
[1] = test system: C. jejuni (mixture of five strains) in chicken ceca; assay: C. jejuni persistence in ceca of 5-week-old colonized chickens; assay type: in vivo; details: for reduction in C. jejuni population per gram of cecum compared with the DMSO control group: 5-week-old chickens, oral twice a day for 5 days, approximately 0.225 mg of SM per kg body weight
Method: Four SMs (T1, T2, T7, and T8) were selected from the initial list of eight SMs based on their low MBC in Caco2 cells (<5 μg SM/ml), low cytotoxicity indexes (<20% toxicity at 5 μg SM /ml), and their minimal effect on commensal bacterial species (less than two species inhibited by the SM out of the seven strains tested; Table 1). The antimicrobial efficacy of our SM was tested on 5-week-old chickens, to assess the clearance of C. jejuni load right before slaughter age. Overall, 5-week-old Campylobacter-free, i.e., specific pathogen-free [SPF] chickens were inoculated orally with a mixture of five C. jejuni strains (10^5 CFU/chicken, Supplementary Table S3). Rectal swabs were collected 1 day post-inoculation (DPI) to confirm C. jejuni colonization (CFU/g of feces) in birds. From 2 DPI to 7 DPI, groups of 4–5 chickens were treated orally twice a day with one of the four SMs (T1, T2, T7, or T8; approximately 0.225 mg of SM per kg body weight). Details of the treatment groups and the inoculum are shown in Supplementary Table S3.
For both experiments, C. jejuni colonized-chickens treated with 0.0001% DMSO and colonized chickens without additional carrier treatment (non-treated) were used as controls (n = 3–6 chicken per group). Details of the treatment groups and the inoculum are shown in Supplementary Table S3. Both 3 and 5-week-old chickens were euthanized at 7 DPI using carbon dioxide gas and ceca (cecal content and the pouch) and were aseptically collected. One of the ceca pairs was immediately stored at −80°C for microbiota studies. The other ceca were suspended in 1X PBS, homogenized, serially diluted, plated on MH media supplemented with Campylobacter Selective Supplement (CSS) agar plate, and incubated for 48 h at 42°C in microaerophilic conditions to determine C. jejuni load in the ceca (CFU/g of ceca).

[2] = test system: Campylobacter spp. (12 strains); assay: Activity spectrum against Campylobacter strains at 6.25 μg/mL with 0.5 mM CuSO4; assay type: cell-based, Campylobacter jejuni, Campylobacter coli; details: 6.25 μg/mL SM
C. jejuni 81–176 = assay: Copper sulfate sensitivity dose–response assay in vitro (MIC/MBC); assay type: cell-based, Campylobacter jejuni; details: for MBC / MIC: Campylobacter jejuni, 0.5 mM CuSO4, head displaced; for MBC: read-out: MBC, C. jejuni (Table S5); for MIC: read-out: MIC, C. jejuni (Table S4); for C. jejuni 81–176 in vitro MBC: minimal bactericidal concentration in presence of 0.5 mM CuSO4; for C. jejuni 81–176 in vitro MIC: minimal bacteriostatic concentration in presence of 0.5 mM CuSO4
Method: (§1) In total, 19 SMs were two-fold serially diluted to obtain a final SM concentration ranging from 6.25 to 0.012 μg/mL. C. jejuni 81–176 was then treated with a determined concentration of SM, as described in the copper sensitivity assay. […] The lowest bactericidal SM concentration was considered the MBC (no increase in OD600 over time and no viable cells were recovered on agar plate after challenge) (N = 3 replicates per SM). […] However, these SMs were two-fold serially diluted to obtain a final SM concentration ranging from 5 μg to 0.0625 μg for testing (N = two independent experiments with four technical replicate for each SM).

C. jejuni Au-20 = assay: as above; assay type: cell-based; details: Campylobacter jejuni; for MIC: AU20, read-out: MIC, Au-20 (Table S4); for MBC: AU20, 0.5 mM CuSO4, read-out: MBC, Au-20 (Table S5)
Method: (§2) Campylobacter jejuni 81–176 was the primary model strain used for the selection of the potential Tat-dependent inhibitors by high-throughput screening. C. jejuni 81–176 is resistant to 0.5 and 1 mM CuSO4 (Supplementary Figure S1). C. jejuni 81–176 tatC knockout mutant (C. jejuni ΔtatC) was used to confirm the Tat-dependent inhibitory effect of the selected SM. C. jejuni ΔtatC is susceptible to 0.5 mM and higher of CuSO4 ([Rajashekara et al., 2009]). The specificity of the Tat-dependent inhibitors was also tested on 11 additional Campylobacter strains (C. coli ATCC33559 and 10 other C. jejuni strains isolated from chickens) and 7 commensal/beneficial bacteria (Supplementary Table S1). The […] (Au-13, Au-20, Au-38, Au-39, Au-47, Au-50, Au-24, Au-32, Au-44, and Au-45) were selected based on their single nucleotide polymorphism (SNP)-type and percent of prevalence in chickens ([Merchant-Patel et al., 2008]; [Kumar et al., 2016]). Additional details about the bacterial strains are shown in Supplementary Table S1.
as §1

C. jejuni Au-13 = assay: as above; assay type: cell-based; details: Campylobacter jejuni; for MIC: AU13, read-out: MIC, Au-13 (Table S4); for MBC: AU13, 0.5 mM CuSO4, read-out: MBC, Au-13 (Table S5)
Method: as §2, §1

C. coli ATCC33559 = assay: as above; assay type: cell-based; details: Campylobacter coli; for MIC: ATCC33559, read-out: MIC, C. coli (Table S4); for MBC: ATCC33559, 0.5 mM CuSO4, read-out: MBC, C. coli (Table S5)
Method: as §2, §1

C. jejuni Au-24 = assay: as above; assay type: cell-based; details: Campylobacter jejuni; for MIC: AU24, read-out: MIC, Au-24 (Table S4); for MBC: AU24, 0.5 mM CuSO4, read-out: MBC, Au-24 (Table S5)
Method: as §2, §1

C. jejuni Au-32 = assay: as above; assay type: cell-based; details: Campylobacter jejuni; for MIC: AU32, read-out: MIC, Au-32 (Table S4); for MBC: AU32, 0.5 mM CuSO4, read-out: MBC, Au-32 (Table S5)
Method: as §2, §1

C. jejuni Au-45 = assay: as above; assay type: cell-based; details: Campylobacter jejuni; for MIC: AU45, read-out: MIC, Au-45 (Table S4); for MBC: AU45, 0.5 mM CuSO4, read-out: MBC, Au-45 (Table S5)
Method: as §2, §1

C. jejuni Au-38 = assay: as above; assay type: cell-based; details: Campylobacter jejuni; for MIC: AU38, read-out: MIC, Au-38 (Table S4); for MBC: AU38, 0.5 mM CuSO4, read-out: MBC, Au-38 (Table S5)
Method: as §2, §1

C. jejuni Au-44 = assay: as above; assay type: cell-based; details: Campylobacter jejuni; for MIC: AU44, read-out: MIC, Au-44 (Table S4); for MBC: AU44, 0.5 mM CuSO4, read-out: MBC, Au-44 (Table S5)
Method: as §2, §1

C. jejuni Au-39 = assay: as above; assay type: cell-based; details: Campylobacter jejuni; for MIC: AU39, read-out: MIC, Au-39 (Table S4); for MBC: AU39, 0.5 mM CuSO4, read-out: MBC, Au-39 (Table S5)
Method: as §2, §1

C. jejuni Au-50 = assay: as above; assay type: cell-based; details: Campylobacter jejuni; for MIC: AU50, read-out: MIC, Au-50 (Table S4); for MBC: AU50, 0.5 mM CuSO4, read-out: MBC, Au-50 (Table S5)
Method: as §2, §1

C. jejuni Au-47 = assay: as above; assay type: cell-based; details: Campylobacter jejuni; for MIC: AU47, read-out: MIC, Au-47 (Table S4); for MBC: AU47, 0.5 mM CuSO4, read-out: MBC, Au-47 (Table S5)
Method: as §2, §1

SMILES	reduction in C. jejuni population per gram of cecum compared with the DMSO control group [1]	Growth inhibition at 6.25 μg/mL, Campylobacter spp. (strains inhibited/tested) [2]	MBC (C. jejuni 81–176)	MIC (C. jejuni 81–176)	C. jejuni 81–176 in vitro MBC (C. jejuni 81–176)	C. jejuni 81–176 in vitro MIC (C. jejuni 81–176)	MIC (C. jejuni Au-20)	MBC (C. jejuni Au-20)	MIC (C. jejuni Au-13)	MBC (C. jejuni Au-13)	MIC (C. coli ATCC33559)	MBC (C. coli ATCC33559)	MIC (C. jejuni Au-24)	MBC (C. jejuni Au-24)	MIC (C. jejuni Au-32)	MBC (C. jejuni Au-32)	MIC (C. jejuni Au-45)	MBC (C. jejuni Au-45)	MIC (C. jejuni Au-38)	MBC (C. jejuni Au-38)	also measured
CCCNC(=S)Nc1cc(OC)cc(OC)c1 [T1]	did not reduce	12/12	0.62 µg/mL (≈ 2.44 µM)	0.19 µg/mL (≈ 0.747 µM)	0.62 µg/mL	0.19 µg/mL	0.31 µg/mL (≈ 1.22 µM)	0.62 µg/mL (≈ 2.44 µM)	1.25 µg/mL (≈ 4.91 µM)	2.5 µg/mL (≈ 9.83 µM)	0.31 µg/mL (≈ 1.22 µM)	0.62 µg/mL (≈ 2.44 µM)	0.16 µg/mL (≈ 0.629 µM)	0.32 µg/mL (≈ 1.26 µM)	0.62 µg/mL (≈ 2.44 µM)	1.24 µg/mL (≈ 4.88 µM)	0.31 µg/mL (≈ 1.22 µM)	0.62 µg/mL (≈ 2.44 µM)	0.31 µg/mL (≈ 1.22 µM)	0.62 µg/mL (≈ 2.44 µM)	MIC (C. jejuni Au-44): 0.31 µg/mL (≈ 1.22 µM); MBC (C. jejuni Au-44): 0.62 µg/mL (≈ 2.44 µM); MIC (C. jejuni Au-39): 0.31 µg/mL (≈ 1.22 µM); MBC (C. jejuni Au-39): 0.62 µg/mL (≈ 2.44 µM); MIC (C. jejuni Au-50): 0.31 µg/mL (≈ 1.22 µM); MBC (C. jejuni Au-50): 0.62 µg/mL (≈ 2.44 µM); MIC (C. jejuni Au-47): 0.16 µg/mL (≈ 0.629 µM); MBC (C. jejuni Au-47): 0.32 µg/mL (≈ 1.26 µM)
CC(C)(C)NC(=S)NNc1c(Cl)cncc1Cl [T2]	1.2 log	12/12	0.62 µg/mL (≈ 2.11 µM)	0.01 µg/mL (≈ 0.0341 µM)	0.62 µg/mL	0.01 µg/mL	0.62 µg/mL (≈ 2.11 µM)	1.24 µg/mL (≈ 4.23 µM)	0.31 µg/mL (≈ 1.06 µM)	0.62 µg/mL (≈ 2.11 µM)	0.62 µg/mL (≈ 2.11 µM)	1.24 µg/mL (≈ 4.23 µM)	0.31 µg/mL (≈ 1.06 µM)	0.62 µg/mL (≈ 2.11 µM)	0.62 µg/mL (≈ 2.11 µM)	1.24 µg/mL (≈ 4.23 µM)	0.62 µg/mL (≈ 2.11 µM)	1.24 µg/mL (≈ 4.23 µM)	0.62 µg/mL (≈ 2.11 µM)	1.24 µg/mL (≈ 4.23 µM)	decrease of cecal C. jejuni colonization/load ([1]; 3 and 5-week-old chickens, 5-day treatment twice a day, 0.225 mg or 0.127 mg of SM per kg body weight): up to 1.2 log; MIC (C. jejuni Au-44): 0.31 µg/mL (≈ 1.06 µM); MBC (C. jejuni Au-44): 0.62 µg/mL (≈ 2.11 µM); MIC (C. jejuni Au-39): 0.31 µg/mL (≈ 1.06 µM); MBC (C. jejuni Au-39): 0.62 µg/mL (≈ 2.11 µM); MIC (C. jejuni Au-50): 0.31 µg/mL (≈ 1.06 µM); MBC (C. jejuni Au-50): 0.62 µg/mL (≈ 2.11 µM); MIC (C. jejuni Au-47): 0.31 µg/mL (≈ 1.06 µM); MBC (C. jejuni Au-47): 0.62 µg/mL (≈ 2.11 µM)
